In patent US20230365493A1, “COMPOUNDS AND METHODS” (DEMAGTECH PTY LTD, priority 2020, published 2023):
Structures can show the parent of a compound that is named as a salt.

Tested on: A. thaliana
Assay: Herbicidal activity assay, post-emergence, pots
Type: in vivo, Arabidopsis thaliana Col-0
Details: A. thaliana Col-0; post-emergence treatments at three and six days after germination; grown 16 days after treatment
Method: (§1) A range of compounds of the invention were assessed for herbicidal activity against A. thaliana. A. thaliana Col-0 seeds (˜30) were sown in 63×63×59 mm pots consisting of Irish peat that was pre-wet prior to sowing. Seeds were cold-treated for 3 days in the dark at 4° C. to synchronise germination and then grown in a chamber at 22° C., with 60% relative humidity and in a 16 h light/8 h dark photoperiod. Compounds of the invention were initially dissolved in dimethyl sulfoxide (DMSO) at 20 mg/mL and further diluted in water prior to treatments. The surfactant Brushwet (SST Australia) was added to a final concentration of 0.02%. The carrier DMSO was used as a negative control. Seeds or seedlings were treated with solutions of compound that contained 2% of DMSO, using a pipette. Post-emergence treatments were done at three and six days after germination. Seedlings were grown for 16 days after treatment before photos were taken.
The results of this study are represented in the following table, where compounds of the invention are represented by number, and herbicidal activity is represented using the following: ≤125 μM=+++, ≤500 μM=++, ≤2000 μM=+
as §1, with “A.” for “A range of compounds of the invention were assessed for herbicidal activity against A. thaliana. A.”, “Compounds” for “Compounds of the invention”

SMILES | Active at [µM]
CC(=NNC(=O)Nc1cccc(F)c1)c1ncccc1C(=O)OCCN(C)C.Cl [2-(Dimethylamino)ethyl 2-[1-[2-[[(3-fluorophenyl)amino]carbonyl]hydrazinylidene]ethyl]-3-pyridinecarboxylate hydrochloride] | 125
CC(C)C1(C)N=C(c2ncccc2C(=O)OCCN(C)C)NC1=O.Cl (stereo not shown) [2-(Dimethylamino)ethyl 2-[4,5-dihydro-4-methyl-4-(1-methylethyl)-5-oxo-1H-imidazol-2-yl]-3-pyridinecarboxylate hydrochloride] | 500
CN(C)CCOC(=O)c1nc(Cl)ccc1Cl.Cl [3,6-dichloropyridine-2-carboxylic acid 2-(dimethylamino)ethyl ester hydrochloride] | 125
CN(C)CCOC(=O)c1nc(Cl)ccc1Cl [3,6-dichloropyridine-2-carboxylic acid 2-(dimethylamino)ethyl ester] | 125
CN(C)CCOC(=O)c1c(Cl)ccc2cc(Cl)cnc12.Cl [3,7-dichloroquinoline-8-carboxylic acid 2-(dimethylamino)ethyl ester hydrochloride] | 2000
CN(C)CCOC(=O)c1c(Cl)ccc2cc(Cl)cnc12 [3,7-dichloroquinoline-8-carboxylic acid 2-(dimethylamino)ethyl ester] | 2000

Same assay, conditions: Arabidopsis thaliana, 384 h; A. thaliana Col-0; post-emergence treatments at three and six days after germination; grown 16 days after treatment

SMILES | minimal effective concentration [µM]
O=C(O)CC(O)(CC(=O)O)C(=O)O [1. citrate] | ≤ 125
COc1c(Cl)ccc(Cl)c1C(=O)OCCN(C)C [Compound 1, 2-(dimethylamino)ethyl 3,6-dichloro-2-methoxybenzoate] | ≤ 500
CCN(CC)CCOC(=O)c1c(Cl)ccc(Cl)c1OC [Compound 2, 2-(diethylamino)ethyl 3,6-dichloro-2-methoxybenzoate] | ≤ 125
COc1c(Cl)ccc(Cl)c1C(=O)OCCN(C(C)C)C(C)C [Compound 3, 2-(dipropan-2-ylamino)ethyl 3,6-dichloro-2-methoxybenzoate] | ≤ 500
CCCCN(CCCC)CCOC(=O)c1c(Cl)ccc(Cl)c1OC [Compound 4, 2-(dibutylamino)ethyl 3,6-dichloro-2-methoxybenzoate] | ≤ 125
COc1c(Cl)ccc(Cl)c1C(=O)OCCN1CCCC1 [Compound 5, 2-(pyrrolidin-1-yl)ethyl 3,6-dichloro-2-methoxybenzoate] | ≤ 500
COc1c(Cl)ccc(Cl)c1C(=O)OCCN1CCCCC1 [Compound 6, 2-(piperidin-1-yl)ethyl 3,6-dichloro-2-methoxybenzoate] | ≤ 2000
COc1c(Cl)ccc(Cl)c1C(=O)OCCN1CCOCC1 [Compound 7, 2-(morpholin-4-yl)ethyl 3,6-dichloro-2-methoxybenzoate] | ≤ 125
COc1c(Cl)ccc(Cl)c1C(=O)OCCN1CCN(C)CC1 [Compound 8, 2-(4-methylpiperazin-1-yl)ethyl 3,6-dichloro-2-methoxybenzoate] | ≤ 2000
COc1c(Cl)ccc(Cl)c1C(=O)OC1CCN(C)CC1 [Compound 9, 1-methylpiperidin-4-yl 3,6-dichloro-2-methoxybenzoate] | ≤ 2000
COc1c(Cl)ccc(Cl)c1C(=O)OCC1CCCN1C (stereo not shown) [Compound 10, (1-methylpyrrolidin-2-yl)methyl 3,6-dichloro-2-methoxybenzoate] | ≤ 500
COc1c(Cl)ccc(Cl)c1C(=O)OCCc1ccccn1 [Compound 11, 2-(pyridin-2-yl)ethyl 3,6-dichloro-2-methoxybenzoate] | ≤ 125
COc1c(Cl)ccc(Cl)c1C(=O)OCCCN(C)C [Compound 12, 3-(dimethylamino)propyl 3,6-dichloro-2-methoxybenzoate] | ≤ 2000
COc1c(Cl)ccc(Cl)c1C(=O)OCCCCCCN(C)C [Compound 14, 6-(dimethylamino)hexyl 3,6-dichloro-2-methoxybenzoate] | ≤ 125
COc1c(Cl)ccc(Cl)c1C(=O)OCCCCCCCCN(C)C [Compound 15, 8-(dimethylamino)octyl 3,6-dichloro-2-methoxybenzoate] | ≤ 500
COc1c(Cl)ccc(Cl)c1C(=O)OCCOCCN(C)C [Compound 16, 2-(2-(dimethylamino)ethoxy)ethyl 3,6-dichloro-2-methoxybenzoate] | ≤ 500
COc1c(Cl)ccc(Cl)c1C(=O)OCCN(C)CCO [Compound 17, 2-((2-hydroxyethyl)(methyl)amino)ethyl 3,6-dichloro-2-methoxybenzoate] | ≤ 2000
COc1c(Cl)ccc(Cl)c1C(=O)OCCN(C)CCOC(=O)c1c(Cl)ccc(Cl)c1OC [Compound 18, (Methylazanediyl)bis(ethane-2,1-diyl) bis(3,6-dichloro-2-methoxybenzoate)] | ≤ 125
COc1c(Cl)ccc(Cl)c1C(=O)OCCN [Compound 19, 2-aminoethyl 3,6-dichloro-2-methoxybenzoate] | ≤ 500
CNCCOC(=O)c1c(Cl)ccc(Cl)c1OC [Compound 20, 2-(methylamino)ethyl 3,6-dichloro-2-methoxybenzoate] | ≤ 500
COc1c(Cl)ccc(Cl)c1C(=O)OCC(C)(C)N [Compound 21, 2-amino-2-methylpropyl 3,6-dichloro-2-methoxybenzoate] | ≤ 500
COc1c(Cl)ccc(Cl)c1C(=O)OC(C)CN (stereo not shown) [Compound 22, 1-aminopropan-2-yl 3,6-dichloro-2-methoxybenzoate] | ≤ 2000
COc1c(Cl)ccc(Cl)c1C(=O)OCCCN [Compound 23, 3-aminopropyl 3,6-dichloro-2-methoxybenzoate] | ≤ 125
CCN(CCOC(=O)c1c(Cl)ccc(Cl)c1OC)c1ccccc1 [Compound 24, 2-(ethyl(phenyl)amino)ethyl 3,6-dichloro-2-methoxybenzoate] | ≤ 500
COc1c(Cl)ccc(Cl)c1C(=O)OCCN(Cc1ccccc1)Cc1ccccc1 [Compound 25, 2-(dibenzylamino)ethyl 3,6-dichloro-2-methoxybenzoate] | ≤ 2000
COc1c(Cl)ccc(Cl)c1C(=O)OC(CN(C)C)CN(C)C [Compound 26, 1,3-bis(dimethylamino)propan-2-yl 3,6-dichloro-2-methoxybenzoate] | ≤ 125
COc1c(Cl)ccc(Cl)c1C(=O)SCCN(C)C [Compound 27, S-(2-(dimethylamino)ethyl) 3,6-dichloro-2-methoxybenzene-1-carbothioate] | ≤ 125
CCN(CC)CCSC(=O)c1c(Cl)ccc(Cl)c1OC [Compound 28, S-(2-(diethylamino)ethyl) 3,6-dichloro-2-methoxybenzene-1-carbothioate] | ≤ 125

Tested on: Arabidopsis thaliana
Assay: Activity of 2,4-DB esters compared with 2,4-DB
Type: in vivo
Details: 31.25 μM to 2000 μM; imaged day 12
Method: (§2) Once the Arabidopsis thaliana seeds had germinated, this was Day 0 and an image taken (Treatment—Day 0) to show plants were all at the same stage. Plants were treated either with 2,4-DB or 2-(dimethylamino)ethyl 4-(2,4-dichlorophenoxy)butanoate at concentrations ranging from 31.25 μM to 2000 μM as marked and imaged 12 days later (Treatment—Day 12).
as §2, with “4-(2,4-dichlorophenoxy)butanoate hydrochloride” for “4-(2,4-dichlorophenoxy)butanoate”

SMILES | activity against Arabidopsis thaliana on an equimolar basis, FIGS. 19 and 20
O=C(O)CCCOc1ccc(Cl)cc1Cl [2,4-DB, 4-(2,4-dichlorophenoxy)butanoic acid, reference compound] | comparable activity
CN(C)CCOC(=O)CCCOc1ccc(Cl)cc1Cl.Cl [2-(dimethylamino)ethyl 4-(2,4-dichlorophenoxy)butanoate hydrochloride] | comparable activity
CN(C)CCOC(=O)CCCOc1ccc(Cl)cc1Cl [2-(dimethylamino)ethyl 4-(2,4-dichlorophenoxy)butanoate] | comparable activity
